Key:
[1] = molecular target: T1, 5-HT1A receptor (Homo sapiens, UniProt P08908); test: 5-HT1A receptor cAMP agonist test; type: cell-based; conditions: HEK293 cell strain stably expressing 5-HT1A receptor
T1 construct: expressed in transfected cells
T1 sequence (P08908 1-422): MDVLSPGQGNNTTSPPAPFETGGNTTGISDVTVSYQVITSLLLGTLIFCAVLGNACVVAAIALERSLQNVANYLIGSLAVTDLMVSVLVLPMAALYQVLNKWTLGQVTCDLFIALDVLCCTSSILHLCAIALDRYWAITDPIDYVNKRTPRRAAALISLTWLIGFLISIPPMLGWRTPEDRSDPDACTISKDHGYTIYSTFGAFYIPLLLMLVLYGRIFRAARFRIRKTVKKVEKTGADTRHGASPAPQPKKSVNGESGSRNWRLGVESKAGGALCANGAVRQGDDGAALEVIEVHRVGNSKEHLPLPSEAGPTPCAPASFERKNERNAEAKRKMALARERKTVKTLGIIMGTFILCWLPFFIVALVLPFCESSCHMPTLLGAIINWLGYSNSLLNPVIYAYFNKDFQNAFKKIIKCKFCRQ

[2] = molecular target: 5-HT2B receptor (Homo sapiens, UniProt P41595); test: Calcium flux test for 5-HT2B receptor; type: cell-based; conditions: HEK293 cell strain stably expressing 5-HT2B receptor
Chain of 5-HT2B receptor (P41595 whole entry): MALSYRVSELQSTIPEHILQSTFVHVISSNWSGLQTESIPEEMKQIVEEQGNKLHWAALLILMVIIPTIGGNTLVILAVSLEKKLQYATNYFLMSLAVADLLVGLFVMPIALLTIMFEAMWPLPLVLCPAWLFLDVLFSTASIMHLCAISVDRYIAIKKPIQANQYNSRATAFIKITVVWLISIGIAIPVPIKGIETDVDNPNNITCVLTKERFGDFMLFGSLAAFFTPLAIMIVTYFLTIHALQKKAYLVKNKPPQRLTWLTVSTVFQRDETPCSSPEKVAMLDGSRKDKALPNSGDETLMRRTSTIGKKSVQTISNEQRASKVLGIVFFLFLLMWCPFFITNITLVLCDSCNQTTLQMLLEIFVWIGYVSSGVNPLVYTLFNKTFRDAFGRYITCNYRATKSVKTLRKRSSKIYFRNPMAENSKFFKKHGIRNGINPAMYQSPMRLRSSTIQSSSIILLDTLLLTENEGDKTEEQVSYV
Source text: • Fluo-4 calcium flux detection kit was purchased from Invitrogen; an HEK293 cell strain stably expressing 5-HT2B receptor was purchased from GenScript; serotonin was purchased from Sigma; methiothepin was purchased from Targetmol; polylysine-coated 384-well plates and 384-well compound plates were purchased from Greiner Bio-One. Molecular Device FLIPR, Agilent Bravo liquid workstation, and Countstar BioTech cell counter.
• (1) The cultured cells were digested with trypsin, and the cell suspension was taken after the digestion was terminated. The cryopreserved cells were rapidly thawed in a water bath at 37° C., and the cells were resuspended in a plating medium. […] The pellet was resuspended in an appropriate amount of plating medium, 20 μL of cell suspension was counted using a cell counter, and the cell density was diluted to 1×10^6 cells/mL. • (2) 20 μL of cell suspension was added to a polylysine-coated 384-well plate (2×10^4 cells/well). • (3) The cell plate was incubated in a 37° C./5% CO2 incubator for 16-20 h.
• (1) The cell plate was taken out from the incubator and centrifuged at 100×g to remove the medium. […] The cell plate and agonist positive compound plate were placed into the FLIPR instrument, the detection program was run, 10 μL of the diluted compound was transferred from the agonist compound plate to the cell plate, and the fluorescence signal was read. […]

O=C1Nc2cc(OCCCCN3CCN(c4cccc(Cl)c4Cl)CC3)ccc2C2CC12 (stereo not shown) [Example 1, 5-(4-(4-(2,3-Dichlorophenyl)piperazin-1-yl)butoxy)-3,7b-dihydro-1H-cyclopropa[c]quinolin-2(1aH)-one] was tested, and the EC50 ([1]; cAMP, forskolin 2.5×10^−7 M) was 1010 nM, the “5-HT1A Max Act %” value ([1]; positive control serotonin 10^−6 M) was 50.2% and the IC50 ([2]; calcium flux, antagonism of serotonin) was 658 nM. The “5-HT2B Max Inh %” value ([2]; positive control methiothepin 10^−5 M) was 105.8%.

From patent US20240368115A1, “REGULATOR CONTAINING TRICYCLIC DERIVATIVE, PREPARATION METHOD THEREFOR AND APPLICATION THEREOF” (SHUJING BIOPHARMA CO., LTD, priority 2021, published 2024)
